Measured values: ChEMBL document CHEMBL2074281, “Drug excretion mediated by a new prototype of polyspecific transporter” (Nature, 1994)

T1: Solute carrier family 22 member 1 (Rattus norvegicus, UniProt Q63089)
T1 sequence (Q63089 whole entry): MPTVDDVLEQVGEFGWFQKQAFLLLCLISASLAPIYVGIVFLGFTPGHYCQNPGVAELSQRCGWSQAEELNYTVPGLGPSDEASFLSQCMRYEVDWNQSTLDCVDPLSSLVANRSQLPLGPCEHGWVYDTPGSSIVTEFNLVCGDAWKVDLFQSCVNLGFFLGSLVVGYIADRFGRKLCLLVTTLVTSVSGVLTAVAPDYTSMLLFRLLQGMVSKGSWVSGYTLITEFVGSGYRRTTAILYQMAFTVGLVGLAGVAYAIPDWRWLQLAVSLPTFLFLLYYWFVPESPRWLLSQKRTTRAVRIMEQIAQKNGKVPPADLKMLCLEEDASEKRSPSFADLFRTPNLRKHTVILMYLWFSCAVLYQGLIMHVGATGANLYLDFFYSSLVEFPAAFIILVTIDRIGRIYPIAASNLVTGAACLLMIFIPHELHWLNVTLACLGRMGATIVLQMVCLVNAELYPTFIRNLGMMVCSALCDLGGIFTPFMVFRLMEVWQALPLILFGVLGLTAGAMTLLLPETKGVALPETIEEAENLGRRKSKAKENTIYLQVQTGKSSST

B1: Solute carrier family 22 member 1 (Rattus norvegicus) (protein)
chain: T1 sequence (Q63089 whole entry)

Each molecule was assayed against T1, Solute carrier family 22 member 1 (assay: TP_TRANSPORTER: inhibition of TEA uptake in Xenopus laevis oocytes).
Assay type: functional, cell-based, Oocyte
In the case of COC(=O)[C@H]1[C@H]2C[C@@H]3c4[nH]c5cc(OC)ccc5c4CCN3C[C@H]2C[C@@H](OC(=O)c2cc(OC)c(OC)c(OC)c2)[C@@H]1OC [RESERPINE], the Ki is reported as over 20 µM. For CC[n+]1c(CC2C=C(C)N=C(c3ccccc3)N2C)ccc2ccccc21 (stereo unspecified) [Cyanine-863], the Ki was 0.13 µM. CNC(=O)c1cccnc1 [NICOTINYL METHYLAMIDE] was tested, and the Ki was 1000 µM. For C[C@]12C[C@H](O)[C@H]3[C@@H](CCC4=CC(=O)CC[C@@]43C)[C@@H]1CC[C@@H]2C(=O)CO [CORTICOSTERONE], the Ki was over 10 µM. In the case of COc1cc(C(O)CNC(C)C)ccc1O (stereo unspecified) [METIPRENALINE], the Ki is reported as 43 µM.

These molecules were tested on CC[N+](CC)(CC)CC (assay: cells, lysate or membranes named).
With B1 the Km was 95 µM.
